{"source": "paper PMC5175178", "about": "“Development of an in-vivo active reversible butyrylcholinesterase inhibitor” (Scientific Reports, 2016)", "key": {"[1]": {"target": "T1, huBChE (Homo sapiens, UniProt P06276)", "T1 construct": "made in house", "T1 sequence (P06276 29-602)": "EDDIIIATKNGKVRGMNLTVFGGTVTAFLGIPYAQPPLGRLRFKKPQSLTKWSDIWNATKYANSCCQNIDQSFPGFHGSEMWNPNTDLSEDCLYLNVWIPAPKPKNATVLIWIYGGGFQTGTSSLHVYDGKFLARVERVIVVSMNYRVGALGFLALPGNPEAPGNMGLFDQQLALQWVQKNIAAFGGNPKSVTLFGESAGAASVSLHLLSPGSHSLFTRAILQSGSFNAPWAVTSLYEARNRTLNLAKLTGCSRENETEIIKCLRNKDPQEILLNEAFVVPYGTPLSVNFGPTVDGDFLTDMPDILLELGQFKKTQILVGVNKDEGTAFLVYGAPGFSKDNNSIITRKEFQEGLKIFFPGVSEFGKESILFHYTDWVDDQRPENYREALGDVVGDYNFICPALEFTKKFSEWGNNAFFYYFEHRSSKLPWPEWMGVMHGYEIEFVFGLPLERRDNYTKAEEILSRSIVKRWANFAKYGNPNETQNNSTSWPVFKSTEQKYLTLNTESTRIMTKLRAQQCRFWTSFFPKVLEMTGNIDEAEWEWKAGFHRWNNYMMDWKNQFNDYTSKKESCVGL", "assay": "Kinetic studies for huBChE inhibition, stopped-flow progress curves", "type": "biochemical", "conditions": "hydrolysis by huBChE, pH 8", "method": "This situation is referred to as tight binding inhibition. […] Of note, a high enzyme concentration was used in order to investigate the time-dependent inhibition and to reach the plateau of the reaction, which allowed precise quantification of the substrate concentration. […] The curves were analyzed simultaneously using the ENZO application[36].\nBriefly, the time-course of yellow color formation was followed on a Bio-logic SFM-2000 stopped flow apparatus at 25 °C. […] The buffer solutions were injected into a mixing chamber using syringes. […] The progress curves obtained were analyzed simultaneously, using the ENZO application[36], which can derive and numerically solve a system of differential equations, and fit their coefficients. Several reaction mechanisms were tested."}, "[2]": {"assay": "in vitro", "conditions": "human, human plasma", "method": "(§1) The plasma metabolic stability and hepatic clearance were estimated by the substrate depletion method.\n(§2) The incubation was performed in a 37 °C water bath for 2 h. An aliquot of the incubation mixture was transferred to acetonitrile at 0, 0.5, 1, 1.5 and 2 h, respectively. Samples were then mixed and centrifuged. Supernatants were used for HPLC-MS/MS analysis using selected reaction monitoring, and peak areas were recorded for each analyte. The HPLC conditions consisted of a binary LC pump with autosampler, a C18 column (2 × 20 mm), and gradient elution. The area of precursor compound remaining after each time points relative to the amount remaining at time zero, expressed as percent, is calculated. Subsequently, the half-life (t1/2) was estimated from the slope of the initial linear range of the logarithmic curve of the compound remaining (%) versus time, assuming first order kinetics."}, "[3]": {"assay": "Human plasma stability", "conditions": "human plasma, 1 µM, 37 °C", "method": "as §1, §2"}, "[4]": {"system": "Caco-2 cells", "assay": "Caco-2 monolayer bidirectional permeability assay", "conditions": "ABCB1 marker substrate, no inhibitor", "method": "(§3) They were grown on Transwell® culture inserts with a polycarbonate membrane (diameter, 12 mm; pore size, 0.4 µm). 50,000 cells/filter membranes were used for seeding and the medium was changed every two days. At day 18, transepithelial electrical resistance (TEER) was measured for each filter with Caco-2 cell monolayers. […] The samples were acidified by dilution with the same volume of 0.01M HCl before fluorescence measurements.\n(§4) Ringer buffer with 10 mM d-glucose or 10 mM mannitol on apical and basolateral side of the tissue, respectively, was used as an incubation saline. […] The stock solutions were added either to the apical or to the basolateral compartment to obtain bidirectional permeability measurements. Six samples were withdrawn in 20 min intervals. Each time 300 µl was taken from the 1500 µL basolateral acceptor compartment and 100 µL from the 500 µL apical acceptor compartment. These volumes were immediately replaced by the appropriate fresh incubation saline. […] All apparent permeability coefficients were calculated as described previously^24."}, "[5]": {"system": "ABCB1", "assay": "Caco-2 monolayer bidirectional permeability assay", "conditions": "human; for Papp A→B at 120 min: Caco-2, apical-to-basolateral apparent permeability coefficient; for Papp B→A at 120 min: Caco-2, basolateral-to-apical apparent permeability coefficient", "method": "as §3, §4"}, "[6]": {"system": "scopolamine-induced memory impairment in mice", "assay": "Passive avoidance task, scopolamine-induced memory impairment", "type": "in vivo, Albino Swiss (CD–1 Krf) mice", "method": "The first behavioral test performed was the passive avoidance (PA) task, which allows the evaluation of the effects of a drug on fear-motivated contextual memory. […] In the passive avoidance task, better memory performance is determined according to a longer step-through latency in the retention trial (i.e., the testing phase) than in the acquisition trial (i.e., the conditioning phase). […] The mice had free access to food and water, and the ambient temperature and humidity of the room were kept constant throughout all of the tests. For the behavioral tasks, the mice were selected at random, and each group consisted of 8 to 10 mice dose^−1. The experiments were performed between 08:00 and 14:00. Immediately after these in-vivo assays, the animals were euthanized by cervical dislocation. […] All efforts were made to minimize the number of mice used and their suffering.\nThe effect of the test compounds on acquisition and retention in the passive avoidance task was conducted accordingly to a previously described method^30. For this purpose, the passive avoidance apparatus was used (Panlab Harvard Apparatus, Spain).\nThe testing phase was conducted 24 h after the acquisition phase. For the acquisition, each mouse was initially placed for 30 s in the light compartment (exploration period; guillotine gate closed). At the end of the exploration period the guillotine door between the light and the dark compartments was opened and the time elapsed before entering the black chamber was recorded. As soon as the mouse entered the dark compartment, the door automatically closed and an electrical shock (current intensity: 0.2 mA, duration: 2 s) was delivered through the grid floor.\nFor the retention trial (drug off), the mice were placed in the illuminated white compartment again, and the latency time between door opening and entry into the dark compartment was recorded for each mouse. […] Better memory performance was indicated by longer latency before entry into the black chamber in the test (retention) phase than in the conditioning (acquisition) phase."}, "[7]": {"system": "scopolamine-induced memory impairment in mice", "assay": "Morris water maze task, scopolamine-induced memory impairment", "conditions": "for Distance in goal quadrant (% ±SEM) / Entries in zone NW (n ±SEM) / Latency time (s ±SEM) / Number of NW zone crossings (n ±SEM) / Time in target (NW) quadrant (s ±SEM) / Total distance covered (m ±SEM): probe trial day 7", "method": "In this task the time taken to reach the hidden platform (i.e., the escape latency time), the distance travelled, and the mean speed of swimming are recorded for each experimental group. […] For the behavioral tasks, the mice were selected at random, and each group consisted of 8 to 10 mice dose^−1. The experiments were performed between 08:00 and 14:00. Immediately after these in-vivo assays, the animals were euthanized by cervical dislocation. […] All efforts were made to minimize the number of mice used and their suffering.\nThe Morris water maze is a circular, plastic, grey-painted pool (diameter, 120 cm; height, 60 cm), filled with water (up to about 48 cm below the edge, to prevent an animal from jumping out) that was maintained at 23 ±1 °C. The pool was divided into four equal quadrants (compass locations: NE, NW, SE, SW) by a computerized video tracking system (SMART, ver. 3.0; Panlab, Spain). An escape platform (diameter, 11 cm; height, 47 cm) at a fixed location (the center of the NW quadrant; i.e., the target quadrant). The escape platform was made of transparent Plexiglas and was immersed 1 cm under the surface of water; this was invisible to the swimming mouse. The maze was lighted with the intensity of 45 lx.\nDuring the spatial acquisition trial (six consecutive days), the mice were assigned to training sessions (four training sessions a day; 4 h apart) in which the mice were trained to escape from the water by reaching the hidden platform, the location of which could be identified using distal extra-maze cues (A4-sized sheets of black laminated paper with colored geometric symbols) attached to the room walls to provide navigation points^31. Visual cues had different colors and dimensions, and were kept constant during the whole experiment^31,32. The whole experiment was conducted by an experimenter who remained always stationary in a constant location, thus serving as an additional distal cue for the swimming mice. […] The time taken to reach the hidden platform (escape latency time), distance travelled to reach the platform, and mean speed were recorded in each experimental group and analyzed.\nOn the seventh day (24 h after the last training) the platform was removed from the pool and a probe trial was performed (without drug treatment). Each animal was released from a different start point and was allowed to swim for 60 s. […] Latency time to the first crossing of the former platform location (target zone), number of crossings of the target zone, time spent in the target NW quadrant, total distance, distance spent in NW quadrant, entries into the NW quadrant, and mean speed were measured^31."}, "[8]": {"system": "scopolamine-induced memory impairment in mice", "assay": "Two-day radial arm water maze task, scopolamine-induced memory impairment", "type": "in vivo, C57BL/6J mice", "method": "In this task incorrect arm entries (i.e., errors) are counted. […] The mice had free access to food and water, and the ambient temperature and humidity of the room were kept constant throughout all of the tests. For the behavioral tasks, the mice were selected at random, and each group consisted of 8 to 10 mice dose^−1. The experiments were performed between 08:00 and 14:00. Immediately after these in-vivo assays, the animals were euthanized by cervical dislocation. […] All efforts were made to minimize the number of mice used and their suffering.\nC57BL/6J mice were subjected to the radial arm water maze paradigm^34,35. The main part of the apparatus (Panlab Harvard Apparatus, Spain) consists of a 6-arm maze in a pool filled with water to approximately 10 cm from the top, to be high enough to cover the hidden platform by about 0.5 cm, but also low enough that the visible platform was not covered. The pool was regularly cleaned of any debris left by the mice. The temperature of the water was kept constant during testing (23 ±1 °C). The tester remained in the same position throughout the testing, thus providing an additional visual cue for the mice.\nOn day 1, 15 trials were run in five blocks of three. Each trial lasted up to 60 s. The start arm was varied for each trial, with the goal arm remaining constant for a given individual for both days^34,35. For the first 12 trials, the platform was alternately visible, then hidden, and then hidden for the last three trials. On day 2, the mice (without drug treatment on this day) were run in the same manner as on day 1, but the platform was hidden for all of the trials. As errors have been reported to be the most sensitive measure in this assay^34, the number of errors (i.e., incorrect arm entries made) was counted in a 60 s time-frame. Incorrect arm entries occurred when the mouse selected an arm that was not the goal arm. Entries into the goal arm were not counted as errors, even if the platform was not located. An entry was considered to occur when all four legs of the mice had entered the alley completely. […] If the platform was not located within 60 s, the mice were gently guided through the water by placing a hand behind the animal to direct its swimming direction toward the platform. […] After that, the mouse was gently removed from the platform and thoroughly dried using cellulose paper before placing it back into its home cage under a heat source (a heat lamp).\nFor the statistical analysis of the data obtained, to minimize the impact of individual trial variability, each mouse error for the finding of the platform for three consecutive trials were averaged, giving five data points (5 trial blocks): T1 (trials 1–3), T2 (trials 4–6), T3 (trials 7–9), T4 (trials 10–12) and T5 (trials 13–15), separately for each day of testing."}}, "note": "Structures can show the parent of a compound that is named as a salt."}
{"compound": "CCCC(=O)SCC[N+](C)(C)C.[I-]", "note": "[BTCI, butyrylthiocholine iodide]", "values": [{"measurement": "kcat (s^-1) ± SD", "setting": "[1]", "result": "852 ± 8", "unit": "s⁻¹"}, {"measurement": "Km", "setting": "[1]; read-out: Km (µM) ± SD", "result": "38.5 ± 0.3", "unit": "µM"}]}
{"compound": "CC(C)[N+](C)(CCOC(=O)C1c2ccccc2Oc2ccccc21)C(C)C", "note": "[Propantheline, reference compound]", "values": [{"measurement": "half-life at 1 µM", "setting": "[2]", "result": 17.9, "unit": "min"}, {"measurement": "Half-Life t1/2 (min) 2nd", "setting": "[3]", "result": 18.0, "unit": "min"}, {"measurement": "Half-Life t1/2 (min) Mean", "setting": "[3]", "result": 18, "unit": "min"}]}
{"compound": "CCCOc1cc(N)ccc1C(=O)OCCN(CC)CC", "note": "[Propoxycaine, reference compound]", "values": [{"measurement": "half-life at 1 µM", "setting": "[2]", "result": 3.3, "unit": "min"}, {"measurement": "Half-Life t1/2 (min) 2nd", "setting": "[3]", "result": 3.0, "unit": "min"}, {"measurement": "Half-Life t1/2 (min) Mean", "setting": "[3]", "result": 3, "unit": "min"}]}
{"compound": "COC(=O)c1ccccc1-c1c2ccc(=N)cc-2oc2cc(N)ccc12", "note": "[Rhodamine123]", "values": [{"measurement": "efflux ratio", "setting": "[4]", "result": 7.3}, {"measurement": "efflux ratio at 120 min", "setting": "[5]; Caco-2", "result": 2.5}, {"measurement": "Papp A→B at 120 min", "setting": "[5]; after inhibition with PSC833", "result": 1, "unit": "×10⁻⁶ cm/s"}, {"measurement": "Papp A→B at 120 min", "setting": "[5]; no inhibitor", "result": 1.1, "unit": "×10⁻⁶ cm/s"}, {"measurement": "Papp B→A at 120 min", "setting": "[5]; after inhibition with PSC833", "result": 2.5, "unit": "×10⁻⁶ cm/s"}, {"measurement": "Papp B→A at 120 min", "setting": "[5]; no inhibitor", "result": 7.7, "unit": "×10⁻⁶ cm/s"}]}
{"compound": "CCN(C)C(=O)Oc1cccc([C@H](C)N(C)C)c1", "note": "[Rivastigmine, rivastigmine]", "values": [{"measurement": "effect on step-through latency", "setting": "[6]; 0.5 mg kg^−1 rivastigmine + scopolamine", "result": "not active"}, {"measurement": "step-through latency, retention trial", "setting": "[6]; 1 mg kg^−1 rivastigmine + scopolamine", "result": 85, "unit": "s"}, {"measurement": "step-through latency, retention trial", "setting": "[6]; 2.5 mg kg^−1 rivastigmine + scopolamine", "result": 99, "unit": "s"}, {"measurement": "distance travelled to reach the platform", "setting": "[7]; day 3, scopolamine + 1 mg kg^−1", "result": 4.62, "unit": "m"}, {"measurement": "distance travelled to reach the platform", "setting": "[7]; day 3, scopolamine + 2.5 mg kg^−1", "result": 3.64, "unit": "m"}, {"measurement": "distance travelled to reach the platform", "setting": "[7]; day 5, scopolamine + 1 mg kg^−1", "result": 1.58, "unit": "m"}, {"measurement": "distance travelled to reach the platform", "setting": "[7]; day 5, scopolamine + 2.5 mg kg^−1", "result": 1.74, "unit": "m"}, {"measurement": "Distance in goal quadrant (% ±SEM)", "setting": "[7]; scopolamine + 1 mg kg^–1", "result": "58.6 ±4.4 F[3,33] = 3.307; p<0.05%"}, {"measurement": "Entries in zone NW (n ±SEM)", "setting": "[7]; scopolamine + 1 mg kg^–1", "result": "6.3 ±0.5 F[3,33] = 14.87; p <0.0001 n"}, {"measurement": "Latency time (s ±SEM)", "setting": "[7]; scopolamine + 1 mg kg^–1", "result": "2.1 ±0.9 F[3,33] = 0.7484; NS s"}, {"measurement": "Number of NW zone crossings (n ±SEM)", "setting": "[7]; scopolamine + 1 mg kg^–1", "result": "4.5 ±0.8 F[3,33] = 1.472; NS n"}, {"measurement": "Time in target (NW) quadrant (s ±SEM)", "setting": "[7]; scopolamine + 1 mg kg^–1", "result": "35.9 ±2.8 F[3.33] = 3.824; p <0.05 s"}, {"measurement": "Total distance covered (m ±SEM)", "setting": "[7]; scopolamine + 1 mg kg^–1", "result": "11.3 ±0.5 F[3,33] = 0.1719; NS m"}, {"measurement": "Distance in goal quadrant (% ±SEM)", "setting": "[7]; scopolamine + 2.5 mg kg^–1", "result": "54.0 ±4.4", "unit": "%"}, {"measurement": "Entries in zone NW (n ±SEM)", "setting": "[7]; scopolamine + 2.5 mg kg^–1", "result": "7.4 ±0.6", "unit": "n"}, {"measurement": "Latency time (s ±SEM)", "setting": "[7]; scopolamine + 2.5 mg kg^–1", "result": "2.1 ± 1.0", "unit": "s"}, {"measurement": "Number of NW zone crossings (n ±SEM)", "setting": "[7]; scopolamine + 2.5 mg kg^–1", "result": "3.8 ±0.8", "unit": "n"}, {"measurement": "Time in target (NW) quadrant (s ±SEM)", "setting": "[7]; scopolamine + 2.5 mg kg^–1", "result": "33.5 ± 2.7", "unit": "s"}, {"measurement": "Total distance covered (m ±SEM)", "setting": "[7]; scopolamine + 2.5 mg kg^–1", "result": "11.0 ±0.4", "unit": "m"}, {"measurement": "mean speed of swimming", "setting": "[7]; scopolamine + 1 mg kg^−1", "result": 0.15, "unit": "m s^−1"}, {"measurement": "mean speed of swimming", "setting": "[7]; scopolamine + 2.5 mg kg^−1", "result": 0.12, "unit": "m s^−1"}, {"measurement": "effect in the RAWM task", "setting": "[8]; scopolamine + 1 mg kg^−1", "result": "not effective"}, {"measurement": "errors at the end of the acquisition phase (day 1)", "setting": "[8]; scopolamine + 2.5 mg kg^−1", "result": "< 1", "unit": "error"}]}
{"compound": "CN1[C@@H]2C[C@@H](OC(=O)[C@H](CO)c3ccccc3)C[C@H]1[C@@H]1O[C@@H]12", "note": "[scopolamine, (−)-Scopolamine hydrobromide]", "values": [{"measurement": "distance travelled to reach the platform", "setting": "[7]; day 3, scopolamine treated control (vehicle 3.77 m)", "result": 8.71, "unit": "m"}, {"measurement": "distance travelled to reach the platform", "setting": "[7]; day 5, scopolamine treated control (vehicle 1.94 m)", "result": 5.40, "unit": "m"}, {"measurement": "Distance in goal quadrant (% ±SEM)", "setting": "[7]; vehicle + scopolamine control", "result": "45.4 ±3.8", "unit": "%"}, {"measurement": "Entries in zone NW (n ±SEM)", "setting": "[7]; vehicle + scopolamine control", "result": "6.4 ±0.7", "unit": "n"}, {"measurement": "Latency time (s ±SEM)", "setting": "[7]; vehicle + scopolamine control", "result": "1.3 ± 0.4", "unit": "s"}, {"measurement": "Number of NW zone crossings (n ±SEM)", "setting": "[7]; vehicle + scopolamine control", "result": "2.4 ±0.5", "unit": "n"}, {"measurement": "Time in target (NW) quadrant (s ±SEM)", "setting": "[7]; vehicle + scopolamine control", "result": "26.7 ± 2.5", "unit": "s"}, {"measurement": "Total distance covered (m ±SEM)", "setting": "[7]; vehicle + scopolamine control", "result": "11.3 ±0.3", "unit": "m"}, {"measurement": "mean speed of swimming", "setting": "[7]; scopolamine alone", "result": 0.15, "unit": "m s^−1"}, {"measurement": "mean errors by the end of the five blocks of trials (day 1)", "setting": "[8]; scopolamine-treated control", "result": "~3", "unit": "errors"}]}
